{"source": "paper PMC8742467", "about": "“Therapeutical interference with the epigenetic landscape of germ cell tumors: a comparative drug study and new mechanistical insights” (Clinical Epigenetics, 2022)", "format_in_all_cases": "cell-based, Human", "key": {"CC (JAR)": {"tested_on": "CC (JAR)", "test": "Flow cytometry apoptosis (Annexin V/PI), CC", "conditions": "EC50, 16 h", "procedure": "(§1) For Annexin V/PI staining, cells were washed with Annexin V Binding Buffer before being resuspended in 70 µl Annexin V Binding Buffer and 2.5 μl Annexin V FITC-conjugate (both Miltenyi Biotec, Bergisch Gladbach, Germany) and 15 µg PI (Sigma-Aldrich, Taufkirchen, Germany) and incubated in the dark at room temperature for 15 min. 500 µl of Annexin V Binding Buffer was added before measurement. For the cell cycle analysis, cells were washed with PBS (phosphate buffered saline), fixed by ice cold 70% ethanol and stained with 2 µg/ml PI and 200 µg/ml RNaseA (Quiagen, Hilden, Germany 100 mg/ml) in PBS shortly before every measurement. At least 5 × 10^4 cells were counted and analyzed using the MACSQuant software v 2.13.0."}, "GCT cells": {"tested_on": "GCT cells", "test": "Flow cytometry cell cycle (PI), GCT cells", "conditions": "EC50, 16 h", "procedure": "as §1"}, "YST (GCT72)": {"tested_on": "YST (GCT72)", "test": "Flow cytometry apoptosis (Annexin V/PI), YST", "conditions": "EC50, 16 h", "procedure": "as §1"}, "GCT cell lines": {"tested_on": "GCT cell lines", "test": "XTT cell viability assay, GCT cell lines (pre-screen / summary)", "conditions": "first pre-screen, XTT; read-out: EC50", "procedure": "The […] (XTT) assays were performed as described previously. In summary, for GCT and fibroblast cell lines 5 × 10^3 cells (3 × 10^3 for UC, PCa and RCC cell lines) per 96-well were seeded and different drug concentrations (see Additional file 2: Fig. S2, Additional file 3: Fig. S3) or corresponding solvents were added to the cells the following day. For drug details see Additional file 12: Table S2 C. Each condition was analyzed in four technical replicates and EC50 values were calculated by GraphPad Prism v8."}, "fibroblast control cells": {"tested_on": "fibroblast control cells", "test": "Flow cytometry apoptosis (Annexin V/PI), fibroblasts", "conditions": "EC50, 16 h", "procedure": "as §1"}}}
{"smiles": "Cc1ccc(-n2sc3ccccc3c2=O)cc1", "note": "[PBIT]", "values": [{"measurement": "apoptosis induction in JAR", "setting": "CC (JAR)", "result": "negligible"}, {"measurement": "cell cycle phase accumulation in GCT cells", "setting": "GCT cells", "result": "accumulated in the G0/G1 phase"}, {"measurement": "apoptosis induction in GCT72", "setting": "YST (GCT72)", "result": "negligible"}, {"measurement": "EC50", "setting": "GCT cell lines", "result": "≤ 50", "unit": "µM"}, {"measurement": "apoptosis induction in fibroblast control cells", "setting": "fibroblast control cells", "result": "only a weak apoptosis induction"}]}
